From patent US12655125B2 (SIRONAX LTD., priority 2020, dated 2026) come the findings set out here.

SMILES strings stand for the structures.

What is called EC50 is the concentration needed to bring the measured effect to its halfway point.

In the assay the test system is HT-29 cells. Kind of assay: HT29 Cells 0FBS Assay In Vitro (TNF-α/SMAC mimetic/zVAD-FMK induced necroptosis, CellTiter-Glo cell viability). It is filed as cell-based. Particulars: Homo sapiens; HT-29 cells, FBS free medium, TNF-α (10 ng/ml), SMAC mimetic (6 uM), zVAD-FMK (10 μM), 20 hours; geometric mean EC50; read-out: Cell activity (EC50) of Compounds 1-116. The procedure, abridged: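 HT-29 cells (5,000/well, seeded overnight) in serum-free McCoy's 5A were stimulated with TNF-α 10 ng/ml, SMAC mimetic 6 μM and zVAD-FMK 10 μM to induce necroptosis. Compound added as 10-point 3-fold series for 20 h at 37° C. CellTiter-Glo luminescence gives viability; EC50 is geometric mean of duplicate dose-responses.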
As to `COCc1cnn(C)c1-c1cc(OC2CN(C(=O)N3N=CC[C@H]3c3cc(F)cc(F)c3)C2)c(F)cn1` [compound 80, (S)-(5-(3,5-difluorophenyl)-4,5-dihydro-1H-pyrazol-1-yl)(3-((5-fluoro-2-(4-(methoxymethyl)-1-methyl-1H-pyrazol-5-yl)pyridin-4-yl)oxy)azetidin-1-yl)methanone], the EC50 fell in the range of 0.1 to 100 nM. Then `Cn1ncc(F)c1-c1cc(OC2CN(C(=O)N3N=CC[C@H]3c3cc(F)cc(F)c3)C2)c(F)cn1` [compound 81, (S)-(5-(3,5-difluorophenyl)-4,5-dihydro-1H-pyrazol-1-yl)(3-((5-fluoro-2-(4-fluoro-1-methyl-1H-pyrazol-5-yl)pyridin-4-yl)oxy)azetidin-1-yl)methanone], with 0.1 to 100 nM; and `Cn1ncc(F)c1-c1ncc(F)c(OC2CN(C(=O)N3N=CC[C@H]3c3cc(F)cc(F)c3)C2)n1` [compound 82, (S)-(5-(3,5-difluorophenyl)-4,5-dihydro-1H-pyrazol-1-yl)(3-((5-fluoro-2-(4-fluoro-1-methyl-1H-pyrazol-5-yl)pyrimidin-4-yl)oxy)azetidin-1-yl)methanone], with 0.1 to 100 nM; and `Cn1ncc(Cl)c1-c1cc(OC2CN(C(=O)N3N=CC[C@H]3c3cc(F)cc(F)c3)C2)c(F)cn1` [compound 83, (S)-(3-((2-(4-chloro-1-methyl-1H-pyrazol-5-yl)-5-fluoropyridin-4-yl)oxy)azetidin-1-yl)(5-(3,5-difluorophenyl)-4,5-dihydro-1H-pyrazol-1-yl)methanone], with 0.1 to 100 nM. With `Cn1ncc(Cl)c1-c1ncc(F)c(OC2CN(C(=O)N3N=CC[C@H]3c3cc(F)cc(F)c3)C2)n1` [compound 84, (S)-(3-((2-(4-chloro-1-methyl-1H-pyrazol-5-yl)-5-fluoropyrimidin-4-yl)oxy)azetidin-1-yl)(5-(3,5-difluorophenyl)-4,5-dihydro-1H-pyrazol-1-yl)methanone], the EC50 was 0.1 to 100 nM. Then `Cc1n[nH]cc1-c1cc(OC2CN(C(=O)N3N=CC[C@H]3c3cc(F)cc(F)c3)C2)c(F)cn1` [compound 85, (S)-(5-(3,5-difluorophenyl)-4,5-dihydro-1H-pyrazol-1-yl)(3-((5-fluoro-2-(3-methyl-1H-pyrazol-4-yl)pyridin-4-yl)oxy)azetidin-1-yl)methanone], with 0.1 to 100 nM; and `COCCn1cc(-c2cc(OC3CN(C(=O)N4N=CC[C@H]4c4cc(F)cc(F)c4)C3)c(F)cn2)c(C)n1` [compound 86, (S)-(5-(3,5-difluorophenyl)-4,5-dihydro-1H-pyrazol-1-yl)(3-((5-fluoro-2-(1-(2-methoxyethyl)-3-methyl-1H-pyrazol-4-yl)pyridin-4-yl)oxy)azetidin-1-yl)methanone], with 0.1 to 100 nM; and `O=C(N1CC(Oc2nc(-c3ccn[nH]3)ncc2F)C1)N1N=CC[C@H]1c1cc(F)cc(F)c1` [compound 87, (S)-(5-(3,5-difluorophenyl)-4,5-dihydro-1H-pyrazol-1-yl)(3-((5-fluoro-2-(1H-pyrazol-5-yl)pyrimidin-4-yl)oxy)azetidin-1-yl)methanone], with 0.1 to 100 nM. Then `NC(=O)Cn1nccc1-c1ncc(F)c(OC2CN(C(=O)N3N=CC[C@H]3c3cc(F)cc(F)c3)C2)n1` [compound 88, (S)-2-(5-(4-((1-(5-(3,5-difluorophenyl)-4,5-dihydro-1H-pyrazole-1-carbonyl)azetidin-3-yl)oxy)-5-fluoropyrimidin-2-yl)-1H-pyrazol-1-yl)acetamide], with 100 to 1000 nM; and `NC(=O)Cn1ccc(-c2ncc(F)c(OC3CN(C(=O)N4N=CC[C@H]4c4cc(F)cc(F)c4)C3)n2)n1` [compound 89, (S)-2-(3-(4-((1-(5-(3,5-difluorophenyl)-4,5-dihydro-1H-pyrazole-1-carbonyl)azetidin-3-yl)oxy)-5-fluoropyrimidin-2-yl)-1H-pyrazol-1-yl)acetamide], with 100 to 1000 nM; and `Cc1[nH]ncc1-c1ncc(F)c(OC2CN(C(=O)N3N=CC[C@H]3c3cc(F)cc(F)c3)C2)n1` [compound 90, (S)-(5-(3,5-difluorophenyl)-4,5-dihydro-1H-pyrazol-1-yl)(3-((5-fluoro-2-(5-methyl-1H-pyrazol-4-yl)pyrimidin-4-yl)oxy)azetidin-1-yl)methanone], with 0.1 to 100 nM. The result for `Cc1n[nH]c(C)c1-c1ncc(F)c(OC2CN(C(=O)N3N=CC[C@H]3c3cc(F)cc(F)c3)C2)n1` [compound 91, (S)-(5-(3,5-difluorophenyl)-4,5-dihydro-1H-pyrazol-1-yl)(3-((2-(3,5-dimethyl-1H-pyrazol-4-yl)-5-fluoropyrimidin-4-yl)oxy)azetidin-1-yl)methanone] reads 0.1 to 100 nM; that for `Cc1n[nH]c(C)c1-c1cc(OC2CN(C(=O)N3N=CC[C@H]3c3cc(F)cc(F)c3)C2)c(F)cn1` [compound 92, (S)-(5-(3,5-difluorophenyl)-4,5-dihydro-1H-pyrazol-1-yl)(3-((2-(3,5-dimethyl-1H-pyrazol-4-yl)-5-fluoropyridin-4-yl)oxy)azetidin-1-yl)methanone], 0.1 to 100 nM; that for `COCCn1nc(C)c(-c2cc(OC3CN(C(=O)N4N=CC[C@H]4c4cc(F)cc(F)c4)C3)c(F)cn2)c1C` [compound 93, (S)-(5-(3,5-difluorophenyl)-4,5-dihydro-1H-pyrazol-1-yl)(3-((5-fluoro-2-(1-(2-methoxyethyl)-3,5-dimethyl-1H-pyrazol-4-yl)pyridin-4-yl)oxy)azetidin-1-yl)methanone], 0.1 to 100 nM. Regarding `Cc1nn(CC(N)=O)c(C)c1-c1cc(OC2CN(C(=O)N3N=CC[C@H]3c3cc(F)cc(F)c3)C2)c(F)cn1` [compound 94, (S)-2-(4-(4-((1-(5-(3,5-difluorophenyl)-4,5-dihydro-1H-pyrazole-1-carbonyl)azetidin-3-yl)oxy)-5-fluoropyridin-2-yl)-3,5-dimethyl-1H-pyrazol-1-yl)acetamide], the EC50 lay in the range of 0.1 to 100 nM. Then `Cc1nn(CC(=O)N(C)C)c(C)c1-c1cc(OC2CN(C(=O)N3N=CC[C@H]3c3cc(F)cc(F)c3)C2)c(F)cn1` [compound 95, (S)-2-(4-(4-((1-(5-(3,5-difluorophenyl)-4,5-dihydro-1H-pyrazole-1-carbonyl)azetidin-3-yl)oxy)-5-fluoropyridin-2-yl)-3,5-dimethyl-1H-pyrazol-1-yl)-N,N-dimethylacetamide], with 0.1 to 100 nM; and `Cc1nn(CC(=O)N2CCOCC2)c(C)c1-c1cc(OC2CN(C(=O)N3N=CC[C@H]3c3cc(F)cc(F)c3)C2)c(F)cn1` [compound 96, (S)-2-(4-(4-((1-(5-(3,5-difluorophenyl)-4,5-dihydro-1H-pyrazole-1-carbonyl)azetidin-3-yl)oxy)-5-fluoropyridin-2-yl)-3,5-dimethyl-1H-pyrazol-1-yl)-1-morpholinoethan-1-one], with 0.1 to 100 nM; and `CNC(=O)Cn1nc(C)c(-c2cc(OC3CN(C(=O)N4N=CC[C@H]4c4cc(F)cc(F)c4)C3)c(F)cn2)c1C` [compound 97, (S)-2-(4-(4-((1-(5-(3,5-difluorophenyl)-4,5-dihydro-1H-pyrazole-1-carbonyl)azetidin-3-yl)oxy)-5-fluoropyridin-2-yl)-3,5-dimethyl-1H-pyrazol-1-yl)-N-methylacetamide], with 0.1 to 100 nM.
